Where two headings read alike, the source gives them in different places.
Legend:
CYP2D6 = CYP2D6 (Homo sapiens, UniProt P10635); experiment: Cytochrome inhibition, fluorometric microtiter plate assay (substrate AMMC); type: biochemical
Excerpt: (§1) Among the xenobiotic-metabolizing CYPs, five forms, CYP1A2, CYP2C9, CYP2C19, CYP2D6 and CYP3A4 appear to be the major CYP isoforms responsible for the oxidative metabolism of drugs or xenobiotics. Inhibition of CYP-mediated metabolism, often the mechanism for drug-drug interactions, can limit the use of a drug because of adverse clinical effects. The potential for CYP enzyme inhibition is routinely assessed by performing in vitro inhibition studies by measuring the rates of metabolism of a probe biotransformation in the presence and absence of test molecules. […] The incubation conditions for each cytochrome isoform were as follow: [table]

CYP3A4 = CYP3A4 (Homo sapiens, UniProt P08684); experiment: Cytochrome inhibition, fluorometric microtiter plate assay (substrate BFC); type: biochemical
Sequence of CYP3A4 (P08684 whole entry): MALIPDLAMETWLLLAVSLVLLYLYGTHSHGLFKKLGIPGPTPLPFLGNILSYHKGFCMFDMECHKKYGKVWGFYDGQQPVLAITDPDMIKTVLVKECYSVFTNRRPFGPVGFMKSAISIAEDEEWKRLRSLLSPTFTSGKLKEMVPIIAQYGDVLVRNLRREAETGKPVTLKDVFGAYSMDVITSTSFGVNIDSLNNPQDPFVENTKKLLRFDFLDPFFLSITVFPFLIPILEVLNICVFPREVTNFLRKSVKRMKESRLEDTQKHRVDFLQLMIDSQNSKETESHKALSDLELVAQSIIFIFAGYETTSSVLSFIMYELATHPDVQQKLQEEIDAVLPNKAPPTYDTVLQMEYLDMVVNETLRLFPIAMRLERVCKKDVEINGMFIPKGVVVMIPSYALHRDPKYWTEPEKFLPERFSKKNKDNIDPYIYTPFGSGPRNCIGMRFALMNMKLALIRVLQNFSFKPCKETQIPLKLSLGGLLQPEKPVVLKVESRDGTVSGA
Excerpt: as §1

[1] = target: human histamine H3 receptors (Homo sapiens, UniProt Q9Y5N1); experiment: H3 binding ([125I]iodoproxyfan, membranes); conditions: hH3 binding of the radioligand
Sequence of human histamine H3 receptors (Q9Y5N1 whole entry): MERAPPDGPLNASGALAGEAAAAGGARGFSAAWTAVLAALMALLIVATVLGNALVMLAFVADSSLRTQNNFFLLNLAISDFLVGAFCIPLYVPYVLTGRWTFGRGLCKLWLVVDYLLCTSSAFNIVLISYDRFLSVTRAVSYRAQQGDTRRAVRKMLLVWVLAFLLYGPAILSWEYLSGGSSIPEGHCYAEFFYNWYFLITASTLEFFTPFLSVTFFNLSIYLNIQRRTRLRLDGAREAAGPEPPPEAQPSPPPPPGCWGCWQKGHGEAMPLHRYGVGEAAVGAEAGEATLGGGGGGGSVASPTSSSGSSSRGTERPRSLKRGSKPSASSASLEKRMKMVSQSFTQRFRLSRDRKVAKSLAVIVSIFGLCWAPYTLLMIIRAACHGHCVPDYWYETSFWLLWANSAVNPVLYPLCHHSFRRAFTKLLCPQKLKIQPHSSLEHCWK
Experimental: Membranes expressing human histamine H3 receptors were incubated 1 hour at room temperature in binding buffer containing 50 mM Na2HPO4/KH2PO4 pH 7.5 in a final volume of 200 µl. […] Non-specific binding was determined in the presence of 1 µM lmetit. The reaction was stopped by rapid filtration through GF/B filters (pre-soaked for 2 hours with 0.3% polyethyleneimine) followed by 3 ice cold binding buffer washes. The filter-bound radioactivity was measured in a liquid scintillation counter with 50µl of scintillation fluid.

[2] = compounds of the invention, human recombinant CYP2D6
[3] = compounds of the invention, human recombinant CYP3A4

Sequence of CYP2D6 (P10635 whole entry, canonical isoform): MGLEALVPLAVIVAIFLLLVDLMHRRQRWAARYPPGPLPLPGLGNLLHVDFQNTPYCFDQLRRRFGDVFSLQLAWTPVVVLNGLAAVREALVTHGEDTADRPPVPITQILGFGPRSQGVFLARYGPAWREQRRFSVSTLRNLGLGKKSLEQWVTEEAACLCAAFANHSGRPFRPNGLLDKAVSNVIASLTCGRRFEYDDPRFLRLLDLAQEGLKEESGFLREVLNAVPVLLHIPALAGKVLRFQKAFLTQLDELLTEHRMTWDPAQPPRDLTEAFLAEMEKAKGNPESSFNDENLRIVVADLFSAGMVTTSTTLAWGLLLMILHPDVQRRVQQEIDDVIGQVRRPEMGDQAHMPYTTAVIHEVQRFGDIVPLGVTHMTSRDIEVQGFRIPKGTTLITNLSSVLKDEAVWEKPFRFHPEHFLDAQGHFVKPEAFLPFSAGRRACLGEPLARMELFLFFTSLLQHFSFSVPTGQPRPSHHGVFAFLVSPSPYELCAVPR

IC50 (CYP2D6; [2]) | IC50 (CYP3A4; [3]) | SMILES | other results
> 100000 nM | – | C[C@H]1C[C@H](C)CN(CCCOc2ccc(C(=O)N(C)C)cc2)C1 (relative stereo) [Example 1, trans-1-{3-[4-(N,N-dimethylcarbamoyl)phenoxy]propyl}-3,5-dimethylpiperidine] | –
> 100000 nM | > 100000 nM | C[C@H]1C[C@H](C)CN(CCCOc2ccc(C3=NCCC3)cc2)C1 (relative stereo) [Example 17, trans-1-{3-[4-(4,5-dihydro-3H-pyrrol-2-yl)phenoxy]propyl}-3,5-dimethylpiperidine] | –
– | > 2000 nM | Cc1ccc(-c2ccc(OCCCN3CCCCC3)cc2)cc1 [Example 24, 1-{3-[(4'-methylbiphenyl-4-yl)oxy]propyl}piperidine] | –
– | – | Cc1cc(-c2ccc(OCCCN3CCC[C@H](C)C3)cc2)ccn1 [Example 59] | IC50 (CYP3A4; read-out: CYP3A4 (IC50, concentrations for 50% inhibition), comparative compounds of WO 00/06254): > 1000 nM; IC50 (CYP2D6; read-out: CYP2D6 (IC50, concentrations for 50% inhibition), comparative compounds of WO 00/06254): 1000 nM
– | – | Ic1ccc(COCCCc2cnc[nH]2)cc1 [[^125]iodoproxyfan] | Kd [1]: 0.078 ± 0.006 nM

— EP1717234A1, “Phenoxypropylpiperidines and -pyrrolidines and their use as histamine H3-receptor ligands” (BIOPROJET, priority 2005, dated 2006)
